Data on 7 compounds can be found in patent US20220323406A1, “METHODS AND COMPOSITIONS FOR DIFFERENTIATING STEM CELLS” (Massachusetts Institute of Technology, priority 2019, published 2022).

Assay [1] relates to ENR+CD organoids (ISC to Paneth cell differentiation). In words: Primary screen: basal (non-stimulated) lysozyme secretion LYZ.NS, 2.5-D 384-well ENR+CD organoid differentiation. Format: cell-based, mouse. To be noted: primary screen; for Z.LYZ.NS: standard z score. From the text: (§1) High-throughput screening.
Assay [2] shares this test system. Description: Primary screen: CCh-stimulated lysozyme secretion LYZ.S, 2.5-D 384-well ENR+CD organoid differentiation. Format: cell-based, mouse. To be noted: primary screen.
Excerpt: as §1

The next assay concerns ENR+CD organoids. Description: Primary screen: ATP (CellTiter-Glo 3D, CTG) cell number/viability, 2.5-D 384-well ENR+CD organoids.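 On all read-outs here: compounds given at plating and again on day 3 over a 6-day differentiation from ENR+CV stem-cell-enriched precursors, ATP measured on day 6, plate median as control.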 The following applies: primary screen; for Z.CTG: standard z score. (In ATP-based viability assays light output follows the ATP content of the culture.)
Setting [3] is: 1st dose row of the treatment (0.08 uM by row order; dose not reprinted).
The mark [4] stands for this setting: 2nd dose row of the treatment (0.40 uM by row order; dose not reprinted).
Where [5] appears, read: 3rd dose row of the treatment (2.00 uM by row order; dose not reprinted).
Setting [6] is: 4th dose row of the treatment (10.00 uM by row order; dose not reprinted).

As to `O=C(O)c1ccc(N2C(=O)/C(=C\c3ccc(-c4ccc([N+](=O)[O-])cc4)o3)C=C2c2ccccc2)cc1` [4E1RCat], the “SSMD.LYZ.NS_Rep (strictly standardized mean difference)” value is on record as 0.883 in assay [1] (setting [3]), −0.121 in assay [1] (setting [4]), 0.437 in assay [1] (setting [5]) and 0.053 in assay [1] (setting [6]). The Dose.FC.LYZ.NS in assay [1] (dose 0.08 uM) is listed as 0.100 log2 fold change; in assay [1] (dose 0.40 uM), −0.018 log2 fold change; in assay [1] (dose 2.00 uM), 0.151 log2 fold change; in assay [1] (dose 10.00 uM), 0.007 log2 fold change. Moreover, the “Z.LYZ.NS (standard z score)” value in assay [1] (dose 0.08 uM) is 0.874; in assay [1] (dose 0.40 uM), −0.154; in assay [1] (dose 2.00 uM), 1.316; in assay [1] (dose 10.00 uM), 0.062. The “SSMD.LYZ.S_Rep (strictly standardized mean difference)” value in assay [2] (setting [3]) is on record as 0.712; in assay [2] (setting [4]), 0.185; in assay [2] (setting [5]), 0.311; in assay [2] (setting [6]), 0.321. The “Z.LYZ.S (standard z score)” value is 0.690 in assay [2] (setting [3]), 0.247 in assay [2] (setting [4]), 0.316 in assay [2] (setting [5]) and 0.530 in assay [2] (setting [6]). Besides, the Dose.FC.LYZ.S amounted to 0.107 log2 fold change in assay [2] (dose 0.08 uM), 0.038 log2 fold change in assay [2] (dose 0.40 uM), 0.049 log2 fold change in assay [2] (dose 2.00 uM) and 0.082 log2 fold change in assay [2] (dose 10.00 uM). For the same compound, the “SSMD.CTG.Rep (strictly standardized mean difference)” value in the assay on ENR+CD organoids (setting [3]) was 0.790; in the assay with ENR+CD organoids (setting [4]), 0.559; with ENR+CD organoids (setting [5]), 0.022; with ENR+CD organoids (setting [6]), −0.026. Also, the Dose.FC.CTG is 0.246 log2 fold change with ENR+CD organoids (dose 0.08 uM), 0.362 log2 fold change with ENR+CD organoids (dose 0.40 uM), 0.006 log2 fold change in the assay with ENR+CD organoids (dose 2.00 uM) and −0.011 log2 fold change in the assay with ENR+CD organoids (dose 10.00 uM). Besides, the “Z.CTG (standard z score)” value in the assay on ENR+CD organoids (dose 0.08 uM) is 0.587; with ENR+CD organoids (dose 0.40 uM) it was 0.864; with ENR+CD organoids (dose 2.00 uM), 0.015; in the assay with ENR+CD organoids (dose 10.00 uM) it was −0.026.

Turning to `C=CC(=O)Nc1cccc(Nc2nc(Nc3ccc(OCCOC)cc3)ncc2F)c1` [AVL-292], the Dose.FC.LYZ.NS in assay [1] (dose 0.08 uM) was 0.095 log2 fold change; in assay [1] (dose 0.40 uM), 0.052 log2 fold change; in assay [1] (dose 2.00 uM) it was −0.112 log2 fold change; in assay [1] (dose 10.00 uM), −0.213 log2 fold change. Moreover, the “Z.LYZ.NS (standard z score)” value was 0.831 in assay [1] (dose 0.08 uM), 0.451 in assay [1] (dose 0.40 uM), −0.979 in assay [1] (dose 2.00 uM) and −1.858 in assay [1] (dose 10.00 uM). Moreover, the Dose.FC.LYZ.S in assay [2] (dose 0.08 uM) was 0.235 log2 fold change; in assay [2] (dose 0.40 uM) it was 0.106 log2 fold change; in assay [2] (dose 2.00 uM) it was −0.206 log2 fold change; in assay [2] (dose 10.00 uM), −0.376 log2 fold change. For the same compound, the Dose.FC.CTG in the assay on ENR+CD organoids (dose 0.08 uM) is reported as 0.217 log2 fold change; with ENR+CD organoids (dose 0.40 uM), 0.057 log2 fold change; in the assay on ENR+CD organoids (dose 2.00 uM), −0.058 log2 fold change; with ENR+CD organoids (dose 10.00 uM) it was −0.778 log2 fold change. Further, the “Z.CTG (standard z score)” value in the assay on ENR+CD organoids (dose 0.08 uM) is 0.518; with ENR+CD organoids (dose 0.40 uM), 0.135; with ENR+CD organoids (dose 2.00 uM), −0.138; in the assay on ENR+CD organoids (dose 10.00 uM), −1.859.

With `Nc1nc(OCc2cc(Br)cs2)c2[nH]cnc2n1` [Lomeguatrib], the “Dose.FC.LYZ.NS (log2 fold change)” value in assay [1] (dose 0.08 uM) is recorded as −0.050; in assay [1] (dose 0.40 uM), −0.019; in assay [1] (dose 2.00 uM) it was −0.022; in assay [1] (dose 10.00 uM) it was −0.104. Also, the “Z.LYZ.NS (standard z score)” value in assay [1] (dose 0.08 uM) is −0.437; in assay [1] (dose 0.40 uM), −0.161; in assay [1] (dose 2.00 uM), −0.193; in assay [1] (dose 10.00 uM), −0.908. Besides, the “Dose.FC.LYZ.S (log2 fold change)” value in assay [2] (dose 0.08 uM) is −0.082; in assay [2] (dose 0.40 uM), −0.022; in assay [2] (dose 2.00 uM) it was −0.055; in assay [2] (dose 10.00 uM) it was −0.138. The “Dose.FC.CTG (log2 fold change)” value is −0.426 with ENR+CD organoids (dose 0.08 uM), −0.309 in the assay on ENR+CD organoids (dose 0.40 uM), 0.075 with ENR+CD organoids (dose 2.00 uM) and −0.080 in the assay on ENR+CD organoids (dose 10.00 uM).

`CS(=O)(=O)N1CCN(Cc2cc3nc(-c4cccc5[nH]ncc45)nc(N4CCOCC4)c3s2)CC1` [GDC-0941]: the Dose.FC.LYZ.NS is 0.008 log2 fold change in assay [1] (dose 0.08 uM), −0.013 log2 fold change in assay [1] (dose 0.40 uM), −0.128 log2 fold change in assay [1] (dose 2.00 uM) and −0.156 log2 fold change in assay [1] (dose 10.00 uM). In addition, the Z.LYZ.NS is reported as 0.070 in assay [1] (dose 0.08 uM), −0.112 in assay [1] (dose 0.40 uM), −1.113 in assay [1] (dose 2.00 uM) and −1.362 in assay [1] (dose 10.00 uM). Moreover, the Dose.FC.LYZ.S is reported as 0.018 log2 fold change in assay [2] (dose 0.08 uM), −0.076 log2 fold change in assay [2] (dose 0.40 uM), −0.248 log2 fold change in assay [2] (dose 2.00 uM) and −0.257 log2 fold change in assay [2] (dose 10.00 uM). For the same compound, the Dose.FC.CTG is given as 0.283 log2 fold change in the assay with ENR+CD organoids (dose 0.08 uM), 0.022 log2 fold change in the assay with ENR+CD organoids (dose 0.40 uM), −0.197 log2 fold change in the assay on ENR+CD organoids (dose 2.00 uM) and −1.223 log2 fold change in the assay with ENR+CD organoids (dose 10.00 uM). The Z.CTG was 0.677 in the assay on ENR+CD organoids (dose 0.08 uM), 0.053 in the assay with ENR+CD organoids (dose 0.40 uM), −0.472 with ENR+CD organoids (dose 2.00 uM) and −2.921 with ENR+CD organoids (dose 10.00 uM).

For `COc1cc(N2CCC(N3CCN(C)CC3)CC2)ccc1Nc1ncc(Cl)c(Nc2ccccc2P(C)(C)=O)n1` [AP26113], the Dose.FC.LYZ.NS in assay [1] (dose 0.08 uM) was −0.013 log2 fold change; in assay [1] (dose 0.40 uM), −0.062 log2 fold change; in assay [1] (dose 2.00 uM) it was −0.196 log2 fold change; in assay [1] (dose 10.00 uM), −0.272 log2 fold change. The “Z.LYZ.NS (standard z score)” value is on record as −0.116 in assay [1] (dose 0.08 uM), −0.541 in assay [1] (dose 0.40 uM), −1.706 in assay [1] (dose 2.00 uM) and −2.370 in assay [1] (dose 10.00 uM). The Dose.FC.LYZ.S in assay [2] (dose 0.08 uM) is recorded as 0.109 log2 fold change; in assay [2] (dose 0.40 uM), −0.038 log2 fold change; in assay [2] (dose 2.00 uM), −0.244 log2 fold change; in assay [2] (dose 10.00 uM), −0.343 log2 fold change. In addition, the Dose.FC.CTG is given as −0.054 log2 fold change in the assay on ENR+CD organoids (dose 0.08 uM), 0.061 log2 fold change in the assay on ENR+CD organoids (dose 0.40 uM), −0.558 log2 fold change in the assay with ENR+CD organoids (dose 2.00 uM) and −1.680 log2 fold change in the assay on ENR+CD organoids (dose 10.00 uM).

For the compound I-BET151 (GSK1210151A), the “Dose.FC.LYZ.NS (log2 fold change)” value is given as −0.116 in assay [1] (dose 0.08 uM), −0.248 in assay [1] (dose 0.40 uM), −0.299 in assay [1] (dose 2.00 uM) and −0.284 in assay [1] (dose 10.00 uM). Further, the “Z.LYZ.NS (standard z score)” value in assay [1] (dose 0.08 uM) is listed as −1.010; in assay [1] (dose 0.40 uM), −2.159; in assay [1] (dose 2.00 uM), −2.601; in assay [1] (dose 10.00 uM), −2.473. For the same compound, the “Dose.FC.LYZ.S (log2 fold change)” value in assay [2] (dose 0.08 uM) was −0.242; in assay [2] (dose 0.40 uM) it was −0.344; in assay [2] (dose 2.00 uM), −0.416; in assay [2] (dose 10.00 uM), −0.408. In addition, the “Dose.FC.CTG (log2 fold change)” value in the assay on ENR+CD organoids (dose 0.08 uM) was −0.016; in the assay on ENR+CD organoids (dose 0.40 uM) it was −0.174; in the assay on ENR+CD organoids (dose 2.00 uM), −0.502; in the assay on ENR+CD organoids (dose 10.00 uM), −0.935. Moreover, the “Z.CTG (standard z score)” value was −0.039 in the assay with ENR+CD organoids (dose 0.08 uM), −0.415 in the assay on ENR+CD organoids (dose 0.40 uM), −1.200 in the assay on ENR+CD organoids (dose 2.00 uM) and −2.233 with ENR+CD organoids (dose 10.00 uM).

Regarding `Cc1ccc([C@@H]2O[C@H](CO)[C@@H](O)[C@H](O)[C@H]2O)cc1Cc1ccc(-c2ccc(F)cc2)s1` [Canagliflozin], the Dose.FC.LYZ.NS in assay [1] (dose 0.08 uM) is on record as −0.027 log2 fold change; in assay [1] (dose 0.40 uM), −0.046 log2 fold change; in assay [1] (dose 2.00 uM), 0.025 log2 fold change; in assay [1] (dose 10.00 uM) it was −0.064 log2 fold change. Moreover, the Z.LYZ.NS in assay [1] (dose 0.08 uM) is reported as −0.233; in assay [1] (dose 0.40 uM) it was −0.398; in assay [1] (dose 2.00 uM), 0.214; in assay [1] (dose 10.00 uM), −0.556. The Dose.FC.LYZ.S in assay [2] (dose 0.08 uM) is given as 0.014 log2 fold change; in assay [2] (dose 0.40 uM), −0.032 log2 fold change; in assay [2] (dose 2.00 uM), 0.028 log2 fold change; in assay [2] (dose 10.00 uM), −0.033 log2 fold change. Besides, the Dose.FC.CTG with ENR+CD organoids (dose 0.08 uM) was −0.240 log2 fold change; in the assay with ENR+CD organoids (dose 0.40 uM) it was −0.098 log2 fold change; in the assay with ENR+CD organoids (dose 2.00 uM) it was 0.042 log2 fold change; in the assay on ENR+CD organoids (dose 10.00 uM), −0.079 log2 fold change. Further, the Z.CTG in the assay on ENR+CD organoids (dose 0.08 uM) was −0.572; in the assay on ENR+CD organoids (dose 0.40 uM), −0.235; with ENR+CD organoids (dose 2.00 uM) it was 0.101; in the assay with ENR+CD organoids (dose 10.00 uM) it was −0.188.
